Test results as given in ChEMBL document CHEMBL4354789, “Recent advances in the discovery of indoleamine 2,3-dioxygenase 1 (IDO1) inhibitors” (Medchemcomm, 2019).
Each block holds one compound with its values, some of them ahead of it.

Tests used:
[1] = test system: Plasmodium falciparum; assay: Antimalarial activity against chloroquine-sensitive Plasmodium falciparum 3D7 infected in erythrocytes assessed as reduction in parasite growth preincubated for 48 hrs followed by addition of [3H]Hypoxanthine and measured after 24 hrs by radiometric method; format: functional, organism-based
[2] = test system: Homo sapiens; assay: In vivo inhibition of IDO1 in human patient assessed as reduction in Serum kynurenine level at 25 to 200 mg, po qd for 2 weeks co-treated with nivo-lumab relative to control; format: functional
[3] = test system: Homo sapiens; assay: In vivo inhibition of IDO1 in human patient assessed as reduction in Serum kynurenine level at 100 to 200 mg, po qd for 2 weeks co-treated with nivo-lumab relative to control; format: functional
[4] = target: T1, Indoleamine 2,3-dioxygenase 1 (Homo sapiens, UniProt P14902); assay: Inhibition of IDO1 in HEK293 cells assessed as reduction in L-kynurenine formation incubated for 48 hrs using L-tryptophan as substrate; format: cell-based
T1 sequence (P14902 whole entry): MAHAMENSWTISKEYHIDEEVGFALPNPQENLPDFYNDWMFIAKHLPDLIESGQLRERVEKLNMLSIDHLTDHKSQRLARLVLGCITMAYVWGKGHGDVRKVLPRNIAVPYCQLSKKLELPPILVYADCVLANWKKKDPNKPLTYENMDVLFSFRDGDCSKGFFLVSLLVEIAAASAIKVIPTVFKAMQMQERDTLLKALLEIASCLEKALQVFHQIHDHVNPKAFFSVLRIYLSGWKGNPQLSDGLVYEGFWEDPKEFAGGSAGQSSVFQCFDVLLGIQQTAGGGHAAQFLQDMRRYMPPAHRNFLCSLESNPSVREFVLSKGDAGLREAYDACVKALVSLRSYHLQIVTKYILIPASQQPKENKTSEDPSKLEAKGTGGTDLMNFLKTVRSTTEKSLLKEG

[5] = target: T1, Indoleamine 2,3-dioxygenase 1; assay: Inhibition of recombinant human IDO1 expressed in Escherichia coli assessed as reduction in formation of kynurenine using L-tryptophan as substrate by methylene blue staining based assay
[6] = target: T1, Indoleamine 2,3-dioxygenase 1; assay: Inhibition of IDO1 (unknown origin)
[7] = target: T1, Indoleamine 2,3-dioxygenase 1; assay: Inhibition of recombinant human N-terminal His-tagged IDO1 expressed in Escherichia coli using L-tryptophan as substrate incubated for 60 mins by HPLC analysis
[8] = target: T1, Indoleamine 2,3-dioxygenase 1; assay: Inhibition of IDO1 in LPS-induced human THP1 cells
[9] = target: T1, Indoleamine 2,3-dioxygenase 1; assay: Inhibition of recombinant human IDO1 using L-tryptophan as substrate preincubated for 15 mins followed by substrate addition by methylene blue staining based spectrometric method
[10] = target: T1, Indoleamine 2,3-dioxygenase 1; assay: Inhibition of IDO1 in IFNgamma-indced human HeLa cells incubated for 48 hrs using L-tryptophan as substrate by colorimetric analysis; format: cell-based
[11] = test system: A549; assay: Cytotoxicity against human A549 cells assessed as growth inhibition after 72 hrs by MTT assay; format: functional; conditions: A549, 72 h
[12] = test system: Jurkat; assay: Cytotoxicity against human Jurkat cells assessed as growth inhibition after 72 hrs by MTT assay; format: functional
[13] = target: T2, Indoleamine 2,3-dioxygenase 1 (Mus musculus, UniProt P28776); assay: Inhibition of mouse IDO1 expressed in Escherichia coli Rosetta (DE3) cells
T2 sequence (P28776 whole entry): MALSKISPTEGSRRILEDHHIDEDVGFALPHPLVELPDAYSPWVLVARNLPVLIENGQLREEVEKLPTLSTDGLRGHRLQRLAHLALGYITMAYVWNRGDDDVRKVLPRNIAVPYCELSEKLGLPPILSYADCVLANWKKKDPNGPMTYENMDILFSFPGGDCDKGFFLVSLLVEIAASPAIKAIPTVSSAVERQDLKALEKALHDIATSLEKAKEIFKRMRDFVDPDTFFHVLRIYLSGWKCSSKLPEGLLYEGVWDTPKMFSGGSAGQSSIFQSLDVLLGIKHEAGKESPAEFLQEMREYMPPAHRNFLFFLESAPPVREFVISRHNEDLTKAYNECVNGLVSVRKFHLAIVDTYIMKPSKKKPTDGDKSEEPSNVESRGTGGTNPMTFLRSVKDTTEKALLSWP

[14] = target: T1, Indoleamine 2,3-dioxygenase 1; assay: Inhibition of recombinant human IDO1 expressed in Escherichia coli assessed as reduction in formation of kynurenine using L-tryptophan as substrate measured after 30 mins
[15] = target: T1, Indoleamine 2,3-dioxygenase 1; assay: Inhibition of recombinant human His6-tagged IDO1 expressed in Escherichia coli BL21DE3pLysS cells assessed as reduction in N-formyl-kynurenine level using L-tryptophan as substrate incubated for 60 mins
[16] = target: T2, Indoleamine 2,3-dioxygenase 1; assay: Inhibition of mouse IDO1 expressed in COS1 cells assessed as reduction in N-formyl-kynurenine level incubated for 16 hrs; format: cell-based
[17] = target: T1, Indoleamine 2,3-dioxygenase 1; assay: Inhibition of human IDO1 expressed in COS1 cells assessed as reduction in N-formyl-kynurenine level incubated for 16 hrs; format: cell-based
[18] = target: T1, Indoleamine 2,3-dioxygenase 1; assay: Inhibition of recombinant human His6-tagged IDO1 using L-tryptophan as substrate preincubated for 10 mins and measured after 30 mins
[19] = Tmax in human cancer patient at 2000 mg bid for 28 days by LC-MS method; format: ADME; conditions: in vivo
[20] = Half life in human cancer patient at 2000 mg bid for 28 days by LC-MS method; format: ADME; conditions: in vivo
[21] = Antitumour activity in mouse B16 cells pretreated with compound followed by tumour implantation assessed as reduction in tumour size after 4 days relative to control; design: scale not given: the % may be the effect or the level left
[22] = target: T1, Indoleamine 2,3-dioxygenase 1; assay: Inhibition of recombinant human IDO1 expressed in COS1 cells by colorimetric method; format: cell-based

Structure (SMILES): NOCc1cccc(Cl)c1
IC50 [1]: 0.109 µM

Structure (SMILES): C[C@@H](C(=O)Nc1ccc(Cl)cc1)[C@H]1CC[C@@H](c2ccnc3ccc(F)cc32)CC1
inhibition (INH) [2]: >45%
inhibition (INH) [3]: >60%

Structure (SMILES): Clc1ccc(Nc2cn[nH]n2)cc1
IC50 [4]: 0.067 µM

Structure (SMILES): C[C@@]12CC[C@H](O)CC1=C(O)C(=O)c1cc3c(cc12)C(=O)C1=C(C3=O)S(=O)(=O)CCN1
IC50 [5]: 4 µM

Structure (SMILES): COc1cc(OC(=O)c2c(C)c(O)c(OC(=O)c3c(C)cc(O)c(C)c3O)c(C)c2OC)c(C)c(C)c1C(=O)O
IC50 [6]: 14.5 µM

Structure (SMILES): CC1(C)CCC[C@]2(C)[C@H]3CCC(C=O)C[C@H](O)[C@]3(C=O)CC[C@@H]12 (some centres not stated)
IC50 [7]: 7.7 µM
IC50 [8]: 0.045 µM

Structure (SMILES): COC1=CC(=O)c2c(oc(C)c2CO)C1=O
IC50 [14]: 0.24 µM

Structure (SMILES): COc1nsc2c1C(=O)c1c(O)cccc1C2=O
IC50 [18]: 0.0803 µM

Structure (SMILES): O[C@H](C[C@H]1c2c(F)cccc2-c2cncn21)[C@H]1CC[C@H](O)CC1 [NAVOXIMOD]
Activity [21]: 95%

Continued, in another order:

IC50 [9]: 18 µM
IC50 [10]: 18 µM
Structure (SMILES): CCOc1cc(C(=O)NC(=S)Nc2c(O)ccc3ccccc23)cc(OCC)c1OCC

IC50 [13]: 0.164 µM
Structure (SMILES): Nc1ccc2cc3cccc[n+]3cc2c1
GI50 [11]: 86 µM
GI50 [12]: 62 µM

Ki [15]: 24.5 µM
EC50 [16]: 26.1 µM
EC50 [17]: 24 µM
Structure (SMILES): CSC(=S)NCc1c[nH]c2ccc(Br)cc12

Tmax [19]: 2.9 h
half-life [20]: 10.5 h
Structure (SMILES): Cn1cc(C[C@H](N)C(=O)O)c2ccccc21 (racemic) [(L)-1-METHYLTRYPTOPHAN]

EC50 [22]: 12.8 µM
Structure (SMILES): CN1C(=O)C(Cc2c[nH]c3ccccc23)NC1=S (configuration not stated) [NECROSTATIN]
